Patent publication US5233036A, “Rapamycin alkoxyesters” (American Home Products Corporation, priority 1992, dated 1993)
Values after ≈ are worked out from the molar mass of the structure shown. Read-outs that look alike come from different tables or passages of the source.

Legend:
thymocyte proliferation = assay: Comitogen-induced thymocyte proliferation procedure (LAF); assay type: cell-based, BALB/c mice; settings: for LAF (ratio): ratio relative to rapamycin (rapamycin 1.0), 72 h culture, PHA and IL-1
Protocol: (§1) Immunosuppressive activity was evaluated in an in vitro standard pharmacological test procedure to measure lymphocyte proliferation (LAF) and in two in vivo standard pharmacological test procedures. The first in vivo procedure was a popliteal lymph node (PLN) test procedure which measured the effect of compounds of this invention on a mixed lymphocyte reaction and the second in vivo procedure evaluated the survival time of a pinch skin graft.
Briefly, cells from the thymus of normal BALB/c mice are cultured for 72 hours with PHA and IL-1 and pulsed with tritiated thymidine during the last six hours. […] Cells are harvested and incorporated; radioactivity is determined. Inhibition of lymphoproliferation is assessed in percent change in counts per minute from non-drug treated controls. The results are expressed by the following ratio, or as the percent inhibition of lymphoproliferation of 1 μM. [formula]

Candida albicans [1] = assay: Plate test procedure for measurement of inhibition (antifungal activity); assay type: cell-based
Protocol: The following represents the typical procedure used. Compound to be tested was placed on sterile dried 1/4" plate disks, and allowed to dry. Agar plates were seeded with fungi and allowed to solidify. The impregnated disks were placed on the seeded Agar surface and incubated for the time required for the particular culture. Results are expressed in MIC (μg/ml) to inhibit growth.

pinch skin graft = assay: Survival time of pinch skin graft; assay type: in vivo, male DBA/2 donors transplanted to male BALB/c recipients; settings: intraperitoneal; mean ± S.D.
Protocol: as §1
The second in vivo test procedure is designed to determine the survival time of pinch skin graft from male DBA/2 donors transplanted to male BALB/c recipients. The method is adapted from Billingham R. E. and Medawar P. B., J. Exp. Biol. 28:385-402, (1951). Briefly, a pinch skin graft from the donor is grafted on the dorsum of the recipient as a homograft, and an autograft is used as control in the same region. […] Untreated recipients serve as rejection control. The graft is monitored daily and observations are recorded until the graft becomes dry and forms a blackened scab. This is considered as the rejection day. The mean graft survival time (number of days±S.D.) of the drug treatment group is compared with the control group.

[2] = test system: experimental allergic encephalomyelitis; settings: model for multiple sclerosis; cited from earlier work
[3] = alone or in combination with picibanil; cited from earlier work
Candida albicans [4] = settings: particularly against Candida albicans, both in vitro and in vivo; cited from earlier work
[5] = test system: mixed lymphocyte reaction; assay: Popliteal lymph node (PLN) test procedure (mixed lymphocyte reaction in vivo); design: species or system C3H mice (recipient), BALB/c donors; settings: ratio relative to rapamycin (rapamycin 1.0); drug daily p.o. Day 0 to Day 4
Protocol: as §1
A mixed lymphocyte reaction (MLR) occurs when lymphoid cells from genetically distinct animals are combined in tissue culture. Each stimulates the other to undergo blast transformation which results in increased DNA synthesis that can be quantified by the incorporation of tritiated thymidine. Since stimulating a MLR is a function of disparity at Major Histocompatibility antigens, as in vivo popliteal lymph node (PLN) test procedure closely correlates to host vs. graft disease. Briefly, irradiated spleen cells from BALB/c donors are injected into the right hind foot pad of recipient C3H mice. The drug is given daily, p.o. from Day 0 to Day 4. On Day 3 and Day 4, tritiated thymidine is given i.p., b.i.d.. On Day 5, the hind popliteal lymph nodes are removed and dissolved, and radioactivity counted. […] Percent suppression is calculated using the non-drug treated animals as allogenic control. […]

[6] = ATCC38246, strain ATCC 38246, read-out: MIC
[7] = ATCC38247, strain ATCC 38247, read-out: MIC
[8] = ATCC38248, strain ATCC 38248, read-out: MIC

| MIC (Candida albicans [1]; ATCC10231, strain ATCC 10231, read-out: MIC) [µg/mL] | Compound | suppression of T-cell proliferation (LAF), in words (thymocyte proliferation) | LAF (ratio) (thymocyte proliferation) | MIC (Candida albicans [1]; [6]) [µg/mL] | MIC (Candida albicans [1]; [7]) [µg/mL] | MIC (Candida albicans [1]; [8]) [µg/mL] | MIC (Candida albicans [1]; strain 3669, read-out: MIC) [µg/mL] | Skin graft survival time (days + SD) (pinch skin graft) [days] | MIC (Candida albicans [1]; ATCC10231) [µg/mL] | effectiveness in experimental allergic encephalomyelitis model [2] | antitumor activity [3] | antifungal activity (Candida albicans [4]) | PLN (ratio) [5] |
| --- | --- | --- | --- | --- | --- | --- | --- | --- | --- | --- | --- | --- | --- |
| 0.05 (≈ 0.0486 µM) | CO[C@H]1C[C@@H]2CC[C@@H](C)[C@@](O)(O2)C(=O)C(=O)N2CCCC[C@H]2C(=O)O[C@H]([C@H](C)C[C@@H]2CC[C@@H](OCC(=O)OC(C)(C)C)[C@H](OC)C2)CC(=O)[C@H](C)/C=C(\C)[C@@H](O)[C@@H](OC)C(=O)[C@H](C)C[C@H](C)/C=C/C=C/C=C/1C [Example 2, 42-Deoxy-42-[2-(1,1-dimethylethoxy)-2-oxoethoxy]rapamycin] | suppressed T-cell proliferation | 0.27 | 0.2 (≈ 0.194 µM) | 0.05 (≈ 0.0486 µM) | 0.1 (≈ 0.0972 µM) | 0.2 (≈ 0.194 µM) | – | – | – | – | – | – |
| – | CCOC(=O)CO[C@@H]1CC[C@@H](C[C@@H](C)[C@@H]2CC(=O)[C@H](C)/C=C(\C)[C@@H](O)[C@@H](OC)C(=O)[C@H](C)C[C@H](C)/C=C/C=C/C=C(\C)[C@@H](OC)C[C@@H]3CC[C@@H](C)[C@@](O)(O3)C(=O)C(=O)N3CCCC[C@H]3C(=O)O2)C[C@H]1OC [Example 1, 42-Deoxy-42-(2-ethoxy-2-oxoethoxy)rapamycin] | suppressed T-cell proliferation | 0.46 | 0.1 (≈ 0.1 µM) | 0.2 (≈ 0.2 µM) | 0.1 (≈ 0.1 µM) | 0.05 (≈ 0.05 µM) | 7.5 ± 1.2 | 0.5 (≈ 0.5 µM) | – | – | – | – |
| – | CO[C@H]1C[C@@H]2CC[C@@H](C)[C@@](O)(O2)C(=O)C(=O)N2CCCC[C@H]2C(=O)O[C@H]([C@H](C)C[C@@H]2CC[C@@H](O)[C@H](OC)C2)CC(=O)[C@H](C)/C=C(\C)[C@@H](O)[C@@H](OC)C(=O)[C@H](C)C[C@H](C)/C=C/C=C/C=C/1C [Rapamycin, rapamycin] | – | – | – | – | – | – | – | – | effective in the experimental allergic encephalomyelitis model | shown to have antitumor activity | found to have antifungal activity | 1.0 |
